Measurements: article PMC12638379, “An innovative approach to development of new pyrazolylquinolin-2-one hybrids as dual EGFR and BRAF^V600E inhibitors” (Molecular Diversity, 2025)
Read-outs that look alike come from different tables or passages of the source.

Columns and labels:
[1] = tested on: lung cancer (HOP-92) cell line; assay: MTT antiproliferative assay, HOP-92; type: cell-based, human
Procedure: […]. […] See Appendix B.
After 24 h of culture incubation and supernatants discarded.

[2] = tested on: breast cancer (T47D) cell line; assay: MTT antiproliferative assay, T-47D
Summary of the method: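 HOP-92, MOLT-4 and T-47D cells in DMEM/10% FBS/insulin exposed 24 h to serial 10-fold dilutions […]; MTT added 2–4 h, absorbance at 570 nm with 690 nm background subtraction. Percent viable cells gives IC50; GI50 is the average IC50 across the three lines.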

[3] = biological target: T1, EGFR (Homo sapiens, UniProt P00533); assay: EGFR inhibitory assay; type: biochemical; details: for %inh: EGFR, unit not given
T1 construct: EGFR cytoplasmic domain (EGFR-CD, amino acids 645–1186); His6 (N); made in house; host or cells: Sf-9 insect cells (baculovirus)
T1 sequence (P00533 669-1210): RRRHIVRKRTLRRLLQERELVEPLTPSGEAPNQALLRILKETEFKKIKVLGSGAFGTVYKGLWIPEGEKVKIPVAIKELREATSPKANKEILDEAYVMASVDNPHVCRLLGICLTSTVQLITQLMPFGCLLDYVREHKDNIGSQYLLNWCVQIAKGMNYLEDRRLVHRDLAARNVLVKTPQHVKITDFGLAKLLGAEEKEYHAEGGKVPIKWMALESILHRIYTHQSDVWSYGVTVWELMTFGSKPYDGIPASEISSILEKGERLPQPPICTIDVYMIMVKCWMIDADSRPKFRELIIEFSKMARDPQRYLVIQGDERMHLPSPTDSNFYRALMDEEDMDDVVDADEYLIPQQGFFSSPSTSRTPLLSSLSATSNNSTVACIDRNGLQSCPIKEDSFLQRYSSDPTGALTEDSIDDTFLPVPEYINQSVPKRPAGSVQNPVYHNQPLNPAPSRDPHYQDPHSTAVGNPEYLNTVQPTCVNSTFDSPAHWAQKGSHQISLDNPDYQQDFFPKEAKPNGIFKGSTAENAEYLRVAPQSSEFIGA

[4] = tested on: NCI 60 cancer cell lines; assay: NCI anticancer screening over a panel of 60 cancer cells, single concentration 10 µM; type: cell-based, human; details: Homo sapiens, read-out: % Growth Inhibition (GI %)
Summary of the method: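 Run under the NCI Compound Evaluation Branch protocol, each compound was tested once at 10 µM. The panel comprised 60 cancer cell lines of diverse tissue origin, including leukemia, lung, colon, CNS, renal, ovarian, breast and prostate.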

Which results are given for C/C(=N\Nc1ccc(S(N)(=O)=O)cc1)c1cnn(-c2cc(=O)[nH]c3ccc(Cl)cc23)c1C [Compound 4d, (E)-4-(2-(1-(1-(6-chloro-2-oxo-1,2-dihydroquinolin-4-yl)-5-methyl-1H-pyrazol-4-yl)ethylidene)hydrazineyl)benzenesulfonamide]?
% viability ([1]; HOP-92, MTT, 0.4uM, listed as Ws4, 0.4 µM): 85.21%; % viability ([1]; HOP-92, MTT, 1.6uM, listed as Ws4, 1.6 µM): 75.93%; % viability ([1]; HOP-92, MTT, 6.3uM, listed as Ws4, 6.3 µM): 64.52%; % viability ([1]; HOP-92, MTT, 25uM, listed as Ws4, 25 µM): 52.12%; % viability ([1]; HOP-92, MTT, 100uM, listed as Ws4, 100 µM): 42.18%; viability at 0.4 µM ([1]; Homo sapiens, HOP-92, HOP-92, MTT, 0.4uM, read-out: % viability): 85.2%; viability at 1.6 µM ([1]; Homo sapiens, HOP-92, HOP-92, MTT, 1.6uM, read-out: % viability): 75.9%; viability at 6.3 µM ([1]; Homo sapiens, HOP-92, HOP-92, MTT, 6.3uM, read-out: % viability): 64.5%; viability at 25 µM ([1]; Homo sapiens, HOP-92, HOP-92, MTT, 25uM, read-out: % viability): 52.1%; viability at 100 µM ([1]; Homo sapiens, HOP-92, HOP-92, MTT, 100uM, read-out: % viability): 42.2%; IC50 ([1]; Homo sapiens, HOP-92, MTT, read-out: Antiproliferative activity IC50 ± SEM, HOP-92): 36.5 ± 1.46 µM; viability at 0.4 µM ([2]; Homo sapiens, T47D, T-47D, MTT, 0.4uM): 77.2%; viability at 1.6 µM ([2]; Homo sapiens, T47D, T-47D, MTT, 1.6uM): 68.1%; viability at 6.3 µM ([2]; Homo sapiens, T47D, T-47D, MTT, 6.3uM): 56.8%; viability at 25 µM ([2]; Homo sapiens, T47D, T-47D, MTT, 25uM): 45.8%; viability at 100 µM ([2]; Homo sapiens, T47D, T-47D, MTT, 100uM): 33.6%; IC50 ([2]; Homo sapiens, T47D, read-out: Antiproliferative activity IC50 ± SEM, T-47D, MTT): 13.8 ± 0.48 µM; % viability ([2]; T-47D, MTT, 1.6uM, listed as Ws4, 1.6 µM): 68.09%; % viability ([2]; T-47D, MTT, 6.3uM, listed as Ws4, 6.3 µM): 56.85%; % viability ([2]; T-47D, MTT, 25uM, listed as Ws4, 25 µM): 45.78%; % viability ([2]; T-47D, MTT, 100uM, listed as Ws4, 100 µM): 33.56%; %inh ([3]; conc 0.01 (log -2)): 27.8%; %inh ([3]; conc 0.1 (log -1)): 40.6%; %inh ([3]; conc 1 (log 0)): 72.7%; %inh ([3]; conc 10 (log 1)): 86.9%; %inh ([3]; conc 100 (log 2)): 93.7%; IC50 ([3]; read-out: EGFR inhibition IC50 ± SEM): 0.156 ± 0.006 µM; inhibition at 10 µM ([4]; 786-0, Renal cancer 786-0, 10 μM): 14.4%; inhibition at 10 µM ([4]; A498, Renal cancer A498, 10 μM): < 5%; inhibition at 10 µM ([4]; A549, Non-small cell lung cancer A549/ATCC, 10 μM): < 5%; inhibition at 10 µM ([4]; ACHN, Renal cancer ACHN, 10 μM): 14.1%; inhibition at 10 µM ([4]; BT-549, Breast cancer BT-549, 10 μM): 56.3%; inhibition at 10 µM ([4]; CAKI-1, Renal cancer CAKI-1, 10 μM): 21.5%; inhibition at 10 µM ([4]; CCRF-CEM, Leukemia CCRF-CEM, 10 μM): 52.2%; inhibition at 10 µM ([4]; COLO 205, Colon cancer COLO 205, 10 μM): < 5%; inhibition at 10 µM ([4]; DU-145, Prostate cancer DU-145, 10 μM): 10.9%; inhibition at 10 µM ([4]; EKVX, Non-small cell lung cancer EKVX, 10 μM): 10.1%; inhibition at 10 µM ([4]; HCC 2998, Colon cancer HCC-2998, 10 μM): < 5%; inhibition at 10 µM ([4]; HCT-15, Colon cancer HCT-15, 10 μM): < 5%; inhibition at 10 µM ([4]; HCT-116, Colon cancer HCT-116, 10 μM): 19.1%; inhibition at 10 µM ([4]; HL-60, Leukemia HL-60(TB), 10 μM): < 5%; inhibition at 10 µM ([4]; HOP-62, Non-small cell lung cancer HOP-62, 10 μM): 24.6%; inhibition at 10 µM ([4]; HOP-92, Non-small cell lung cancer HOP-92, 10 μM): < 5%; inhibition at 10 µM ([4]; HT-29, Colon cancer HT29, 10 μM): < 5%; inhibition at 10 µM ([4]; Hs-578T, Breast cancer HS 578T, 10 μM): 36.3%; inhibition at 10 µM ([4]; IGROV-1, Ovarian cancer IGROV1, 10 μM): 14.6%; inhibition at 10 µM ([4]; K562, Leukemia K-562, 10 μM): 29.7%; inhibition at 10 µM ([4]; KM12, Colon cancer KM12, 10 μM): 16.7%; inhibition at 10 µM ([4]; LOX IMVI, Melanoma LOX IMVI, 10 μM): 29%
